Series [1] deals with recombinant RORγ Ligand Binding Domain (LBD) protein (Homo sapiens (Human), UniProt P51449). The experiment in a line: Radio-Ligand RORγ Binding Assay (Assay 1). As to conditions: cell-free competition with 25-hydroxy [26,27-3H]-cholesterol; read-out: RORγ Binding Ki Range* (nM) (Assay 1). The procedure: Radio-Ligand ROR ? Binding Assay (Assay 1)
The plate was shaken at 700 rpm for 20 min and incubated for 10 min at rt, after which 40 μL of poly-Lys YSi SPA beads (PerkinElmer, Cat. # RPNQ0010) were added to achieve 50 μg of the beads per well. The plate was incubated on an orbital shaker for 20 min and then for 10 min without agitation at rt. SPA signal for tritium beta radiation was registered on PerkinElmer Microbeta plate reader. […] The percent inhibition vs. concentration data were fit into a four-parameter model, and IC50 values were calculated from the fit as the concentrations corresponding to the inflection points on the dose-response curves.

For series [2], the target named is full-length RORγt in Jurkat cells (Homo sapiens (Human), UniProt P51449).
Chain of full-length RORγt in Jurkat cells (P51449 other isoform, or with tags, fused parts or gaps): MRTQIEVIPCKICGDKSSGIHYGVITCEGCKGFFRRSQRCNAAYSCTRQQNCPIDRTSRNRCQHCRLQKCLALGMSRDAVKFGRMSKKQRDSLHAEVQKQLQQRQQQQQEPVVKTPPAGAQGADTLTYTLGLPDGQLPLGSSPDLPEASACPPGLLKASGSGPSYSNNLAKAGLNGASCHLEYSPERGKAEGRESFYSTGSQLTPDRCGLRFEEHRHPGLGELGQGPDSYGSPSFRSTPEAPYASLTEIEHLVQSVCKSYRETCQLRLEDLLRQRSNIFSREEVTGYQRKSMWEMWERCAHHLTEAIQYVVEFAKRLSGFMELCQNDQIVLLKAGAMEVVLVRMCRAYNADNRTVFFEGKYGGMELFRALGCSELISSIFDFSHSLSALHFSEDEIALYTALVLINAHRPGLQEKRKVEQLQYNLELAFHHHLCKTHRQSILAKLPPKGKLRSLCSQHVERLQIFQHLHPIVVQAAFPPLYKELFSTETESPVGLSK
Description: ROR ? t 5×RORE Assay in Jurkat Cells (Assay 2)
Compounds of the present invention were tested for ROR ? inverse agonist activity in a cell-based, transcriptional activity assay. […] Luciferase activity in the conditioned supernatants was determined with NanoGlo® assay reagents (Promega, Cat.# N1130).
Another series relates to IL-17A production. The experiment in a line: Human Whole Blood Assay (Assay 3). Format: cell-based. The note with it: IL-17A secretion, CytoStim, 48 h, 50% blood/media. How it is done: Human Whole Blood Assay (Assay 3)
Compounds of the invention were tested in the human whole blood assay to measure their effects on IL-17A production as determined by cytokine secretion into 50% blood/media supernatant. Mixtures of sodium heparinized whole blood (isolated from healthy human donors) and the T cell activator CytoStim, in the presence or absence of compound, were plated in sterilized, tissue culture-treated 24-well plates. Specifically, the mixtures in each well were as follows: (1) 500 μL of whole blood, (2) 250 μL of compound diluted into RPMI-1640 media containing 10% HyClone™ FCS (Thermo Fisher Scientific, Waltham, Mass.), Gibco® Pen/Strep and Gibco® NEAA (Life Technologies, Grand Island, N.Y.), and (3) 250 μL of CytoStim (Miltenyi Biotech, Germany) diluted to a final concentration of 10 μL/mL in complete cell culture medium.
IL-17A cytokine expression was determined using 25 μL of the transferred supernatant diluted with 25 μL of Diluent 43 from the Human IL-17A V-PLEX™ kit (cat. # K151RFD-4, Meso Scale Discovery, Rockville, Md.). The assay was performed according to the manufacturer's instructions using included reagents. The IL-17A V-PLEX™ plates were read using the Meso Scale Discovery Imager (Model 1200).

Series [3] concerns the target hERG potassium ion channel (Homo sapiens (Human), UniProt Q12809). The experiment in a line: hERG Assay (Assay 4). Format: cell-based. As to conditions: HEK293 cells stably transfected with hERG cDNA, pH 7.4, Compound at 3 μM, patch clamp, HEK 293 cells. How it is done: Compounds of the invention were tested in vitro against the hERG (human ether-a-go-go-related gene) potassium ion channel (a surrogate for IKr, the rapidly activating delayed rectifier cardiac potassium ion channel).
The buffer was HEPES-buffered physiological saline (HB-PS) solution composed of: 137 mM NaCl, 4.0 mM KCl, 1.8 mM CaCl2, 1 mM MgCl2, 10 mM HEPES, 10 mM glucose, pH adjusted to 7.4 with NaOH, and 0.3% DMSO. Chemicals used in solution preparation were purchased from Sigma-Aldrich (St. Louis, Mo.), unless otherwise noted, and were of ACS reagent grade purity or higher.
HEK (human embryonic kidney) 293 cells were stably transfected with hERG cDNA.
For the patch clamp experiment, onset and steady state inhibition of hERG potassium current was measured using a pulse pattern with fixed amplitudes (depolarization: +20 mV for 2 s; repolarization: −50 mV for 2 s) repeated at 10 s intervals from a holding potential of −80 mV. Peak tail current was measured during the 2 s step to −50 mV. A steady state was maintained for at least 30 seconds before applying compound or positive control (cisapride). Peak tail currents were measured until a new steady state was achieved.
Data acquisition and analyses were performed using the suite of pCLAMP® (ver. 8.2) programs (MDS Analytical Technologies, Sunnyvale, Calif.). Steady state was defined by the limiting constant rate of change with time (linear time dependence). The steady state before and after each compound application was used to calculate the percentage of current inhibited at each concentration. Concentration-response data were fit to an equation of the following form: % Inhibition={1−1/[1+([Test]/IC50)N]}*100
where [Test] was the compound concentration, IC50 was the compound concentration at half-maximal inhibition, N was the Hill coefficient, and % Inhibition was the percentage of current inhibited at each compound concentration. Nonlinear least squares fits were solved with the Solver add-in for Excel 2003 (Microsoft, WA) and the IC50 was calculated.
(hERG is a cardiac potassium channel; its block is linked to QT prolongation.)

Each structure is given as a SMILES string. pIC50: −log10 of the molar value.

Chain of hERG potassium ion channel (Q12809 whole entry): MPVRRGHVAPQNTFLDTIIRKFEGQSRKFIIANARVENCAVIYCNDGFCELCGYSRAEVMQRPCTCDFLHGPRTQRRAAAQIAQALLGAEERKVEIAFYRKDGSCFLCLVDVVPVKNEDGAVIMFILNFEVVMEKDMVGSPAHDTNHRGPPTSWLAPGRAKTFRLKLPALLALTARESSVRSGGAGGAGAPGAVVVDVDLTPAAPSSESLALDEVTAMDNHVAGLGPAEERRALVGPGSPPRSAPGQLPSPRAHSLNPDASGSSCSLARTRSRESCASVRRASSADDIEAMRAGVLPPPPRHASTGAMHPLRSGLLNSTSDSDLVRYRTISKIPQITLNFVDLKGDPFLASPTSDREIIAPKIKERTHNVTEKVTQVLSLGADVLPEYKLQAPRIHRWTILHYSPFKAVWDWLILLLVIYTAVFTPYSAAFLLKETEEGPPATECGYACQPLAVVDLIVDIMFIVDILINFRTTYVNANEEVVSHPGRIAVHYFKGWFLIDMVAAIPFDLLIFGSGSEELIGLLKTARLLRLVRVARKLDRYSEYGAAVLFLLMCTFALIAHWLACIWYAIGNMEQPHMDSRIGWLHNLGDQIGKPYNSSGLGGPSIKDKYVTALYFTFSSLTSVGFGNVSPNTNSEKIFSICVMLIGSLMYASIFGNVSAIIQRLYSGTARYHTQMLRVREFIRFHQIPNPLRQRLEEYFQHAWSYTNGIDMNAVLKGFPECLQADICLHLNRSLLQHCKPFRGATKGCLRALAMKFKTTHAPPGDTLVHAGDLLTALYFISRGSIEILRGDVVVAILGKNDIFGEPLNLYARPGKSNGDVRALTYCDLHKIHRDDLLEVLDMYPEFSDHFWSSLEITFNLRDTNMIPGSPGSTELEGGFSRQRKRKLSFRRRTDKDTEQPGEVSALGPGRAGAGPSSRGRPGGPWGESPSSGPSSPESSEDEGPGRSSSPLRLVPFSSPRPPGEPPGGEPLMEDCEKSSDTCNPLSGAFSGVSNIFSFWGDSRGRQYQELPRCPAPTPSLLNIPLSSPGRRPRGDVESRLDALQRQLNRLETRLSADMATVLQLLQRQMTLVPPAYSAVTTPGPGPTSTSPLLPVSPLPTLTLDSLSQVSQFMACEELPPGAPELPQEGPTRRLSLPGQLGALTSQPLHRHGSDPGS
Chain of recombinant RORγ Ligand Binding Domain (LBD) protein (P51449 269-508): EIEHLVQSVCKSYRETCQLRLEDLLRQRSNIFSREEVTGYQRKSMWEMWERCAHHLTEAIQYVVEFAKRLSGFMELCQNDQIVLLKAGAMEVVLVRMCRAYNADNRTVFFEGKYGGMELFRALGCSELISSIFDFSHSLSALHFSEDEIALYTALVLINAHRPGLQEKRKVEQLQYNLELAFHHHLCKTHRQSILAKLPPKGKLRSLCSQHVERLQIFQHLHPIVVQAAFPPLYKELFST

In general, Ki refers to the equilibrium dissociation constant of an inhibitor or competing ligand from its target. As a reminder, the pIC50 is the negative decadic logarithm of the IC50, by convention in mol/L. A low value points to a large IC50. `CC[C@H]1c2ncc(C(=O)N[C@@H](CO)c3ccc(S(=O)(=O)CC)cc3)cc2CN1C[C@@H]1CC[C@@H](C(F)(F)F)OC1` (single isomer, unassigned) [Compound 11]: the Ki in series [1] was less than 100 nM. Also, the pIC50 in series [2] was greater than 7.00.
In the case of `CCS(=O)(=O)c1ccc([C@H](CO)NC(=O)c2cnc3c(c2)CN(C[C@H]2CC[C@H](C(F)(F)F)CC2)[C@H]3CC2CCOCC2)cc1` [Compound 27], in series [1], the Ki is less than 100 nM.
The same measure, in the same setting: in the case of `CCS(=O)(=O)c1ccc([C@H](CO)NC(=O)c2cnc3c(c2)CN(C[C@H]2CC[C@H](C(F)(F)F)CC2)[C@H]3C2CCOCC2)cc1` [Compound 31] it was less than 100 nM.
In general, IC50 refers to the concentration that inhibits the measured activity by half. Low readings indicate higher potency, high ones lower potency. Regarding `CCS(=O)(=O)c1ccc([C@H](CO)NC(=O)c2cnc3c(c2)CN(C[C@@H]2CC[C@@H](C(F)(F)F)OC2)[C@H]3C(C)C)nc1` [Compound 1], the IC50 in the series on IL-17A production is less than 100 nM. Further, in series [1], the Ki was less than 100 nM. In series [2], the pIC50 was greater than 7.00.
In the case of `CCS(=O)(=O)c1ccc([C@H](CO)NC(=O)c2cnc3c(c2)CN(C[C@H]2CC[C@@H](C(F)(F)F)CO2)[C@H]3C(C)C)cc1` (single isomer, unassigned) [Compound 21], the Ki in series [1] was less than 100 nM. In addition, the pIC50 in series [2] was less than 6.00.
In the case of `CCS(=O)(=O)c1ccc([C@H](CO)NC(=O)c2cnc3c(c2)CN(C[C@@H]2CC[C@@H](C(F)(F)F)CO2)[C@H]3C(C)C)cc1` [Compound 14], the Ki in series [1] was less than 100 nM. The pIC50 in series [2] is greater than 7.00.
On the same counts, the results for `CCS(=O)(=O)c1ccc([C@H](CO)NC(=O)c2cnc3c(c2)CN(C[C@@H]2CC[C@@H](C(F)(F)F)OC2)[C@H]3C(C)C)cc1` [Compound 2] are less than 100 nM and greater than 7.00.
Turning to `CCS(=O)(=O)c1ccc([C@H](CO)NC(=O)c2cnc3c(c2)CN(C[C@H]2CC[C@H](C(F)(F)F)CC2)C3C(F)(F)F)cc1` (some centres unmarked) [Compound 23], the Ki in series [1] was less than 100 nM.
In the case of `CCS(=O)(=O)c1ccc([C@@H](NC(=O)c2cnc3c(c2)CN(C[C@H]2CC[C@H](C(F)(F)F)CC2)[C@H]3C(C)C)[C@@H](C)O)cc1` [Compound 30], the Ki in series [1] was 100 to 1000 nM.
Broadly, the inhibition is the change of the read-out against control, counted positive when it falls. Lower therefore signals a response near the control. For `CCS(=O)(=O)c1ccc([C@H](NC(=O)c2cnc3c(c2)CN(C[C@H]2CC[C@H](C(F)(F)F)CC2)[C@H]3C(C)C)[C@H](C)O)cc1` (single isomer, unassigned) [Compound 39], the Ki in series [1] was less than 100 nM. Further, in series [2], the pIC50 was greater than 7.00. The same molecule registered an inhibition at 3 µM in series [3] of 32.7%.
For the molecule `CCS(=O)(=O)c1ccc([C@H](CO)NC(=O)c2cnc3c(c2)CN(C[C@H]2CC[C@H](C(F)(F)F)CC2)[C@H]3Cc2ccccc2)cc1` [Compound 37], the Ki in series [1] was less than 100 nM.
Same read-out and setting: in the case of `CCO[C@H]1CC[C@H](CN2Cc3cc(C(=O)N[C@@H](CO)c4ccc(S(=O)(=O)CC)cc4)cnc3[C@@H]2C(C)C)CC1` [Compound 43] it was less than 100 nM; in that of `CCS(=O)(=O)c1ccc([C@@H](NC(=O)c2cnc3c(c2)CN(C[C@H]2CC[C@H](C(F)(F)F)CC2)[C@H]3C(C)C)[C@@H](C)O)cc1` [Compound 29], 100 to 1000 nM.
The same measure, in the same setting: in the case of `CCS(=O)(=O)c1ccc([C@H](CO)NC(=O)c2cnc3c(c2)CN(CC(F)(F)F)[C@H]3Cc2ccccc2)cc1` [Compound 22] it was less than 100 nM.
Turning to `CCS(=O)(=O)c1ccc([C@H](CO)NC(=O)c2cnc3c(c2)CN(C[C@H]2CC[C@H](C(F)(F)F)CO2)[C@H]3C(C)C)cc1` (single isomer, unassigned) [Compound 15], the Ki in series [1] was less than 100 nM. In addition, the pIC50 in series [2] is greater than 7.00.
Turning to `CC[C@H]1c2ncc(C(=O)N[C@@H](CO)c3ccc(S(=O)(=O)CC)cn3)cc2CN1C[C@H]1CC[C@H](C(F)(F)F)CC1` [Compound 33], in series [3], the inhibition at 3 µM turned out to be 29.1%.
As to `CCS(=O)(=O)c1ccc([C@H](CO)NC(=O)c2cnc3c(c2)CN(C)[C@@H]3Cc2ccccc2)cc1` (single isomer, unassigned) [Compound 34], the Ki in series [1] was in the range of 100 to 1000 nM.
`CC[C@H]1c2ncc(C(=O)N[C@@H](CO)c3ccc(S(=O)(=O)CC)cc3)cc2CN1C[C@H]1CC[C@H](C(F)(F)F)OC1` (single isomer, unassigned) [Compound 10]: in series [1], the inhibitory constant (Ki) was less than 100 nM. Also, the pIC50 in series [2] is greater than 7.00.
Turning to `CCS(=O)(=O)c1ccc([C@H](CO)NC(=O)c2cnc3c(c2)CN(C[C@H]2CC[C@H](C(F)(F)F)CC2)[C@H]3C(C)C)cc1` [Compound 46, (S)—N—((R)-1-(4-(ethylsulfonyl)phenyl)-2-hydroxyethyl)-7-isopropyl-6-((trans-4-(trifluoromethyl)cyclohexyl)methyl)-6,7-dihydro-5H-pyrrolo[3,4-b]pyridine-3-carboxamide], the Ki in series [1] was less than 100 nM. The molecule further returned an inhibition at 3 µM in series [3] of 44.3%.
Turning to `CCS(=O)(=O)c1ccc([C@H](CO)NC(=O)c2cnc3c(c2)CN(C[C@@H]2CC[C@H](C(F)(F)F)CO2)[C@H]3C(C)C)cc1` (single isomer, unassigned) [Compound 18], in series [1], the Ki is less than 100 nM. The pIC50 in series [2] is less than 6.00.
For `CCS(=O)(=O)c1ccc([C@@H](CO)NC(=O)c2cnc3c(c2)CN(C[C@H]2CC[C@H](C(F)(F)F)CC2)[C@H]3C(C)C)nc1` [Compound 44], in series [3], the inhibition at 3 µM was found to be 28.6%.
With `CC[C@H]1c2ncc(C(=O)N[C@@H](CO)c3ccc(S(C)(=O)=O)cc3)cc2CN1C[C@H]1CC[C@H](C(F)(F)F)CC1` [Compound 24], the inhibition constant Ki in series [1] is less than 100 nM. The molecule further had a pIC50 in series [2] greater than 7.00.
On to `CCS(=O)(=O)c1ccc([C@H](CO)NC(=O)c2cnc3c(c2)CN(C[C@H]2CC[C@H](C(F)(F)F)CC2)[C@H]3C)cc1` [Compound 26], for which, in series [1], the Ki was less than 100 nM.
For `CCS(=O)(=O)c1ccc([C@@H](CO)NC(=O)c2cnc3c(c2)CN(C[C@H]2CC[C@H](C(F)(F)F)CC2)[C@H]3C(C)C)cc1` [Compound 47], the Ki in series [1] was less than 100 nM.
In the case of `CC[C@H]1c2ncc(C(=O)N[C@@H](CO)c3ccc(S(=O)(=O)CC)cc3)cc2CN1C[C@H]1CC[C@H](C(F)(F)F)CC1` [Compound 41, (S)-7-ethyl-N—((R)-1-(4-(ethylsulfonyl)phenyl)-2-hydroxyethyl)-6-((trans-4-(trifluoromethyl)cyclohexyl)methyl)-6,7-dihydro-5H-pyrrolo[3,4-b]pyridine-3-carboxamide], in series [3], the inhibition at 3 µM came to 7.7%.
Turning to `CCS(=O)(=O)c1ccc([C@H](CO)NC(=O)c2cnc3c(c2)CN(C[C@H]2CC[C@H](C(F)(F)F)CC2)[C@@H]3C)cc1` [Compound 28], the Ki in series [1] was greater than 1000 nM.
The same measure, in the same setting: in the case of `CCS(=O)(=O)c1ccc(C(C)(CO)NC(=O)c2cnc3c(c2)CN(C[C@H]2CC[C@H](C(F)(F)F)CC2)[C@H]3C(C)C)cc1` (some centres unmarked) [Compound 7] it was less than 100 nM; in that of `CCS(=O)(=O)c1ccc([C@H](CO)NC(=O)c2cnc3c(c2)CN(CC(F)(F)F)[C@@H]3Cc2ccccc2)cc1` [Compound 19], less than 100 nM.
In the case of `CCS(=O)(=O)c1ccc([C@@H](NC(=O)c2cnc3c(c2)CN(C[C@H]2CC[C@H](C(F)(F)F)CC2)[C@H]3C(C)C)[C@@H](C)O)cc1` (single isomer, unassigned) [Compound 42], the Ki in series [1] is less than 100 nM. In series [2], this molecule showed a pIC50 greater than 7.00. For the same molecule, in series [3], the inhibition at 3 µM turned out to be 63.9%.

The values are drawn from patent US9796710B2, “Dihydropyrrolopyridine inhibitors of ROR-gamma” (Vitae Pharmaceuticals, Inc., priority 2014, dated 2017).
